Assay results published in the supplement of paper PMC4862054.

These compounds were tested on MDA-MB-436 (assay: normalised response (% of control), CellTiter-Glo; higher = more viable cells (100 = DMSO, 0 = benzethonium chloride kill control)). Conditions: incubation time: 72 h.
Summary of the method: (§1)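 Each value is the plate-normalised signal at one concentration of the series. Breast cancer cell lines (20 µl suspension) were incubated 72 h in 384-well plates with compound at 5 concentrations in 10-fold steps over a compound-specific 10,000-fold range. CellTox Green and then CellTiter-Glo were read, and each plate was scaled to 0.1 % DMSO (100) and a positive kill control (0).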

First: COc1cc2c(NC3CCN(C(C)C)CC3)nc(C3CCCCC3)nc2cc1OCCCN1CCCC1 [UNC0638] (10 nM)
Second: C=CCc1cccc(/C=N/NC(=O)CN2CCN(Cc3ccccc3)CC2)c1O [PAC-1] (10 nM)
The normalised response of the first is lower: 94.8% for the first, 98.3% for the second.

`O=C(O)CCCCC(CCSCc1ccccc1)SCc1ccccc1` (stereo not drawn) [CPI-613] (10 nM) was tested, and the normalised response was 105%.

The compounds below were run on HDQ-P1 in the same assay as above. Conditions: incubation time: 72 h.
Summary of the method: as §1

Going from `COc1cc2c(Oc3ccc4[nH]c(C)cc4c3F)ncnc2cc1OCCCN1CCCC1` [Cediranib] (1 nM) to `COc1cc2c(NC3CCN(C(C)C)CC3)nc(C3CCCCC3)nc2cc1OCCCN1CCCC1` [UNC0638] (10 nM), the normalised response falls from 98.6% to 95.6%.

Compared with `COc1cc2c(Oc3ccc4[nH]c(C)cc4c3F)ncnc2cc1OCCCN1CCCC1` [Cediranib] (0.1 nM), `CC[C@@H]1C(=O)N(C)c2cnc(Nc3ccc(C(=O)NC4CCN(C)CC4)cc3OC)nc2N1C1CCCC1` [BI 2536] (1 nM) is lower in normalised response: 103% for the first, 97.8% for the second.

Compared with `O=C(O)CCCCC(CCSCc1ccccc1)SCc1ccccc1` (stereo not drawn) [CPI-613] (1 nM), `C=CCc1cccc(/C=N/NC(=O)CN2CCN(Cc3ccccc3)CC2)c1O` [PAC-1] (1 nM) is higher in normalised response: 100% for the first, 105% for the second.

Compared with `CC[C@H](C)C(=O)O[C@H]1C[C@H](O)C=C2C=C[C@H](C)[C@H](CC[C@@H](O)C[C@@H](O)CC(=O)O)[C@H]21` [Pravastatin] (1 nM), `C[C@H]1C[C@@H]2[C@H]([C@@H](O)C[C@@]3(C)[C@H]2CC[C@]3(O)C(=O)CO)[C@@]2(C)C=CC(=O)C=C12` [Methylprednisolone] (10 nM) is lower in normalised response: 103% for the first, 96.8% for the second.

Compared with `C=CCc1cccc(/C=N/NC(=O)CN2CCN(Cc3ccccc3)CC2)c1O` [PAC-1] (10 nM), `O=C(O)CCCCC(CCSCc1ccccc1)SCc1ccccc1` (stereo not drawn) [CPI-613] (10 nM) is higher in normalised response: 98.9% for the first, 102% for the second.

These compounds were tested on MCF-10A in the same assay as above. Conditions: incubation time: 72 h.
Summary of the method: as §1

First: COc1cc2c(Oc3ccc4[nH]c(C)cc4c3F)ncnc2cc1OCCCN1CCCC1 [Cediranib] (1 nM)
Second: COc1cc2c(NC3CCN(C(C)C)CC3)nc(C3CCCCC3)nc2cc1OCCCN1CCCC1 [UNC0638] (10 nM)
The normalised response of the first is higher: 104% for the first, 83% for the second.

First: COc1cc2c(Oc3ccc4[nH]c(C)cc4c3F)ncnc2cc1OCCCN1CCCC1 [Cediranib] (0.1 nM)
Second: CC[C@@H]1C(=O)N(C)c2cnc(Nc3ccc(C(=O)NC4CCN(C)CC4)cc3OC)nc2N1C1CCCC1 [BI 2536] (1 nM)
The normalised response of the first is lower: 100% for the first, 102% for the second.

Compared with `O=C(O)CCCCC(CCSCc1ccccc1)SCc1ccccc1` (stereo not drawn) [CPI-613] (1 nM), `C=CCc1cccc(/C=N/NC(=O)CN2CCN(Cc3ccccc3)CC2)c1O` [PAC-1] (1 nM) is higher in normalised response: 106% for the first, 113% for the second.

Going from `CC[C@H](C)C(=O)O[C@H]1C[C@H](O)C=C2C=C[C@H](C)[C@H](CC[C@@H](O)C[C@@H](O)CC(=O)O)[C@H]21` [Pravastatin] (1 nM) to `C[C@H]1C[C@@H]2[C@H]([C@@H](O)C[C@@]3(C)[C@H]2CC[C@]3(O)C(=O)CO)[C@@]2(C)C=CC(=O)C=C12` [Methylprednisolone] (10 nM), the normalised response rises from 96% to 113%.

`C=CCc1cccc(/C=N/NC(=O)CN2CCN(Cc3ccccc3)CC2)c1O` [PAC-1] (10 nM) and `O=C(O)CCCCC(CCSCc1ccccc1)SCc1ccccc1` (stereo not drawn) [CPI-613] (10 nM) are the same in normalised response: 112% for the first, 112% for the second.

Each compound was assayed on Hs578T in the same assay as above. Conditions: incubation time: 72 h.
Summary of the method: as §1

Compared with `COc1cc2c(Oc3ccc4[nH]c(C)cc4c3F)ncnc2cc1OCCCN1CCCC1` [Cediranib] (1 nM), `COc1cc2c(NC3CCN(C(C)C)CC3)nc(C3CCCCC3)nc2cc1OCCCN1CCCC1` [UNC0638] (10 nM) is higher in normalised response: 97% for the first, 99.7% for the second.

First: COc1cc2c(Oc3ccc4[nH]c(C)cc4c3F)ncnc2cc1OCCCN1CCCC1 [Cediranib] (0.1 nM)
Second: CC[C@@H]1C(=O)N(C)c2cnc(Nc3ccc(C(=O)NC4CCN(C)CC4)cc3OC)nc2N1C1CCCC1 [BI 2536] (1 nM)
The normalised response of the first is lower: 94.8% for the first, 96.7% for the second.

First: O=C(O)CCCCC(CCSCc1ccccc1)SCc1ccccc1 (stereo not drawn) [CPI-613] (1 nM)
Second: C=CCc1cccc(/C=N/NC(=O)CN2CCN(Cc3ccccc3)CC2)c1O [PAC-1] (1 nM)
The normalised response of the first is lower: 102% for the first, 104% for the second.

Compared with `CC[C@H](C)C(=O)O[C@H]1C[C@H](O)C=C2C=C[C@H](C)[C@H](CC[C@@H](O)C[C@@H](O)CC(=O)O)[C@H]21` [Pravastatin] (1 nM), `C[C@H]1C[C@@H]2[C@H]([C@@H](O)C[C@@]3(C)[C@H]2CC[C@]3(O)C(=O)CO)[C@@]2(C)C=CC(=O)C=C12` [Methylprednisolone] (10 nM) is higher in normalised response: 101% for the first, 103% for the second.

Compared with `C=CCc1cccc(/C=N/NC(=O)CN2CCN(Cc3ccccc3)CC2)c1O` [PAC-1] (10 nM), `O=C(O)CCCCC(CCSCc1ccccc1)SCc1ccccc1` (stereo not drawn) [CPI-613] (10 nM) is lower in normalised response: 103% for the first, 96.6% for the second.

Each compound was assayed on MDA-MB-231 in the same assay as above. Conditions: incubation time: 72 h.
Summary of the method: as §1

First: COc1cc2c(Oc3ccc4[nH]c(C)cc4c3F)ncnc2cc1OCCCN1CCCC1 [Cediranib] (1 nM)
Second: COc1cc2c(NC3CCN(C(C)C)CC3)nc(C3CCCCC3)nc2cc1OCCCN1CCCC1 [UNC0638] (10 nM)
The normalised response of the first is higher: 101% for the first, 92.5% for the second.

Going from `COc1cc2c(Oc3ccc4[nH]c(C)cc4c3F)ncnc2cc1OCCCN1CCCC1` [Cediranib] (0.1 nM) to `CC[C@@H]1C(=O)N(C)c2cnc(Nc3ccc(C(=O)NC4CCN(C)CC4)cc3OC)nc2N1C1CCCC1` [BI 2536] (1 nM), the normalised response falls from 109% to 101%.

Compared with `O=C(O)CCCCC(CCSCc1ccccc1)SCc1ccccc1` (stereo not drawn) [CPI-613] (1 nM), `C=CCc1cccc(/C=N/NC(=O)CN2CCN(Cc3ccccc3)CC2)c1O` [PAC-1] (1 nM) is higher in normalised response: 100% for the first, 103% for the second.

Compared with `CC[C@H](C)C(=O)O[C@H]1C[C@H](O)C=C2C=C[C@H](C)[C@H](CC[C@@H](O)C[C@@H](O)CC(=O)O)[C@H]21` [Pravastatin] (1 nM), `C[C@H]1C[C@@H]2[C@H]([C@@H](O)C[C@@]3(C)[C@H]2CC[C@]3(O)C(=O)CO)[C@@]2(C)C=CC(=O)C=C12` [Methylprednisolone] (10 nM) is higher in normalised response: 102% for the first, 135% for the second.

Going from `C=CCc1cccc(/C=N/NC(=O)CN2CCN(Cc3ccccc3)CC2)c1O` [PAC-1] (10 nM) to `O=C(O)CCCCC(CCSCc1ccccc1)SCc1ccccc1` (stereo not drawn) [CPI-613] (10 nM), the normalised response falls from 100% to 96.2%.

These compounds were tested on HCC1143 in the same assay as above. Conditions: incubation time: 72 h.
Summary of the method: as §1

Compared with `COc1cc2c(Oc3ccc4[nH]c(C)cc4c3F)ncnc2cc1OCCCN1CCCC1` [Cediranib] (1 nM), `C=CCc1cccc(/C=N/NC(=O)CN2CCN(Cc3ccccc3)CC2)c1O` [PAC-1] (1 nM) is lower in normalised response: 106% for the first, 101% for the second.

First: COc1cc2c(Oc3ccc4[nH]c(C)cc4c3F)ncnc2cc1OCCCN1CCCC1 [Cediranib] (0.1 nM)
Second: O=C(O)CCCCC(CCSCc1ccccc1)SCc1ccccc1 (stereo not drawn) [CPI-613] (1 nM)
The normalised response of the first is lower: 98.1% for the first, 105% for the second.

In the case of `CC[C@H](C)C(=O)O[C@H]1C[C@H](O)C=C2C=C[C@H](C)[C@H](CC[C@@H](O)C[C@@H](O)CC(=O)O)[C@H]21` [Pravastatin] (1 nM), the normalised response is reported as 95.1%.
